For eight molecules, Ki, EC50 and Emax results are on record in US8987287B2, “Spirocyclic morphinans and their use” (Purdue Pharma L.P., priority 2012, dated 2015).

The target in assay [1] is T1, μ-opioid receptor (Homo sapiens (Human), UniProt P35372). As to the kind of experiment: μ-opioid receptor radioligand ([3H]-diprenorphine) dose-displacement binding assay. As to conditions: binding affinity. As for the experimental part:
μ-Opioid Receptor Binding Assay Procedures: Radioligand dose-displacement binding assays for μ-opioid receptors used 0.3 nM [^3H]-diprenorphine (Perkin Elmer, Shelton, Conn.), with […] membrane protein/well in a final volume of 500 μl binding buffer (10 mM MgCl2, 1 mM EDTA, 5% DMSO, 50 mM HEPES, pH 7.4). Reactions were carried out in the absence or presence of increasing concentrations of unlabeled naloxone. All reactions were conducted in 96-deep well polypropylene plates for 2 hours at room temperature. Binding reactions were terminated by rapid filtration onto 96-well Unifilter GF/C filter plates (Perkin Elmer, Shelton, Conn.), presoaked in 0.5% polyethylenimine using a 96-well tissue harvester (Perkin Elmer, Shelton, Conn.) followed by performing three filtration washes with 500 μl of ice-cold binding buffer. Filter plates were subsequently dried at 50° C. for 2-3 hours. BetaScint scintillation cocktail (Perkin Elmer, Shelton, Conn.) was added (50 μl/well), and plates were counted using a Packard Top-Count for 1 min/well. The data were analyzed using the one-site competition curve fitting functions in GraphPad PRISM™ v. 3.0 or higher (San Diego, Calif.), or an in-house function for one-site competition curve-fitting.
(§1) In TABLE 1, binding affinity of certain Compounds of the Invention to the μ-, δ- and κ-opioid receptors was determined as described above.

Assay [2] has as its target T2, κ opioid receptor (Homo sapiens (Human), UniProt P41145). Kind of assay: κ-opioid receptor radioligand ([3H]-U69,593) dose-displacement binding assay. As to conditions: binding affinity. The procedure:
κ-Opioid Receptor Binding Assay Procedures: Membranes from recombinantHEK-293 cells, CHO or U-2 OS cells expressing the recombinant human κ opioid receptor (κ) were prepared by lysing cells in ice cold hypotonic buffer (2.5 mM MgCl2, 50 mM HEPES, pH 7.4) (10 mL/10 cm dish) followed by homogenization with a tissue grinder/Teflon pestle. Membranes were collected by centrifugation at 30,000×g for 15 min at 4° C. and pellets were resuspended in hypotonic buffer to a final concentration of 1-3 mg/mL. Protein concentrations were determined using the BioRad protein assay reagent with bovine serum albumen as standard. Aliquots of κ receptor membranes were stored at −80° C.
Radioligand dose displacement assays used 0.4 nM [^3H]-U69,593 (GE Healthcare, Piscataway, N.J.; 40 Ci/mmole) with 15 μg membrane protein (recombinant κ opioid receptor expressed in HEK 293 cells; in-house prep) in a final volume of 200 μl binding buffer (5% DMSO, 50 mM Trizma base, pH 7.4). Non-specific binding was determined in the presence of 10 μM unlabeled naloxone or U69,593. All reactions were performed in 96-well polypropylene plates for 1 hour at a temperature of about 25° C. Binding reactions were terminated by rapid filtration onto 96-well Unifilter GF/C filter plates (Perkin Elmer, Shelton, Conn.) presoaked in 0.5% polyethylenimine (Sigma). Harvesting was performed using a 96-well tissue harvester (Perkin Elmer, Shelton, Conn.) followed by five filtration washes with 200 μl ice-cold binding buffer. Filter plates were subsequently dried at 50° C. for 1-2 hours. Fifty μl/well scintillation cocktail (Perkin Elmer, Shelton, Conn.) was added and plates were counted in a Packard Top-Count for 1 min/well.
as §1

The target of assay [3] is T1, μ-opioid receptor. Kind of assay: μ-opioid receptor [35S]GTPγS functional assay, HEK-293 or CHO cells. It counts as biochemical. As to conditions: for Emax: relative to DAMGO, HEK-293 or CHO cells. As for the experimental part: μ-Opioid Receptor Functional Assay Procedures: [^35S]GTPγS functional assays were conducted using freshly thawed μ-receptor membranes prepared in-house from a cell line expressing recombinant μ opioid receptor in a HEK-293, CHO or U-2 OS cell background, or purchased from a commercial source (Perkin Elmer, Shelton, Conn.; or DiscovRx, Fremont, Calif.). Assay reactions were prepared by sequentially adding the following reagents to binding buffer (100 mM NaCl, 10 mM MgCl2, 20 mM HEPES, pH 7.4) on ice (final concentrations indicated): membrane protein (0.026 mg/mL), saponin ([…]), GDP ([…]) and [^35S]GTPγS (0.20 nM; Perkin Elmer, Shelton, Conn.). The prepared membrane solution (190 μl/well) was transferred to 96-shallow well polypropylene plates containing 10 μl of 20× concentrated stock solutions of the agonist [D-Ala^2, N-methyl-Phe^4 Gly-ol^5]-enkephalin (DAMGO) prepared in dimethyl sulfoxide (DMSO). Plates were incubated for 30 min at about 25° C. with shaking. Reactions were terminated by rapid filtration onto 96-well Unifilter GF/B filter plates (Perkin Elmer, Shelton, Conn.) using a 96-well tissue harvester (Perkin Elmer, Shelton, Conn.) followed by three filtration washes with 200 μl of ice-cold wash buffer (10 mM NaH2PO4, 10 mM Na2HPO4, pH 7.4). Filter plates were subsequently dried at 50° C. for 2-3 hours. BetaScint scintillation cocktail (Perkin Elmer, Shelton, Conn.) was added (50 μl/well) and plates were counted using a Packard Top-Count for 1 min/well. Data were analyzed using the sigmoidal dose-response curve fitting functions in GraphPad PRISM v. 3.0, or an in-house function for non-linear, sigmoidal dose-response curve-fitting.
μ-Opioid Receptor Functional Data: μ GTP EC50 is the concentration of a compound providing 50% of the maximal response for the compound at a μ-opioid receptor.
μ GTP Emax (%) is the maximal effect elicited by a compound relative to the effect elicited by DAMGO, a standard μ agonist. Generally, the μ GTP Emax (%) value measures the efficacy of a compound to treat or prevent pain or other Conditions.
(§2) In TABLE 2, activity response of certain Compounds of the Invention to the μ-, δ- and κ-opioid receptors was determined as described above for functional assays using HEK-293 or CHO cells.

The target in assay [4] is T2, κ opioid receptor. As to the kind of experiment: κ-opioid receptor [35S]GTPγS functional assay, HEK-293 or CHO cells. It counts as biochemical. As to conditions: for Emax: relative to U69,593, HEK-293 or CHO cells. As for the experimental part: κ-Opioid Receptor Functional Assay Procedures: Functional [^35S]GTPγS binding assays were conducted as follows. κ opioid receptor membrane solution was prepared by sequentially adding final concentrations of 0.026 μg/μl κ membrane protein (in-house), 10 μg/mL saponin, 3 μM GDP and 0.20 nM [^35S]GTPγS to binding buffer (100 mM NaCl, 10 mM MgCl2, 20 mM HEPES, pH 7.4) on ice. The prepared membrane solution (190 μl/well) was transferred to 96-shallow well polypropylene plates containing 10 μl of 20× concentrated stock solutions of agonist prepared in DMSO. Plates were incubated for 30 min at a temperature of about 25° C. with shaking. Reactions were terminated by rapid filtration onto 96-well Unifilter GF/B filter plates (Perkin Elmer, Shelton, Conn.) using a 96-well tissue harvester (Packard) and followed by three filtration washes with 200 μl ice-cold binding buffer (10 mM NaH2PO4, 10 mM Na2HPO4, pH 7.4). Filter plates were subsequently dried at 50° C. for 2-3 hours. Fifty μl/well scintillation cocktail (Perkin Elmer, Shelton, Conn.) was added and plates were counted in a Packard Top-Count for 1 min/well.
κ-Opioid Receptor Functional Data: κ GTP EC50 is the concentration of a compound providing 50% of the maximal response for the compound at a κ receptor.
κ GTP Emax (%) is the maximal effect elicited by a compound relative to the effect elicited by U69,593.
as §2

Assay [5] has as its target T1, μ-opioid receptor. As to the kind of experiment: μ-opioid receptor [35S]GTPγS functional assay, U-2 OS cells. In kind it is biochemical.
Assay [6] addresses T2, κ opioid receptor. Kind of assay: κ-opioid receptor [35S]GTPγS functional assay, U-2 OS cells. In kind it is biochemical. For orientation: GTPγS resists hydrolysis and so accumulates on activated G proteins.
Setting [7] is: read-out: Opioid Receptor Ki (nM) μ.
Where [8] appears, read: read-out: Opioid Receptor Ki (nM) κ.
Where [9] appears, read: bound given in μM, read-out: Opioid Receptor Ki κ.

Where two headings read alike, the source gives them in different places.

For `CCN1C(=O)NC(=O)[C@@]12CC[C@@]1(O)[C@H]3Cc4ccc(O)cc4[C@@]1(CCN3CC1CC1)C2` [Compound 49, (4S,4b′R,8a′S,9′R)-11′-(cyclopropylmethyl)-3-ethyl-3′,8a′-dihydroxy-8′,8a′,9′,10′-tetrahydro-5′H,7′H-spiro[imidazolidine-4,6′-[9,4b](epiminoethano)phenantrene]-2,5-dione], the results for the Ki at μ-opioid receptor [1] (setting [7]) and at κ opioid receptor [2] (setting [8]) were 2.28 ± 0.62 nM and 0.47 ± 0.026 nM, respectively. Also, the EC50 – broadly, the concentration at which the effect is half-maximal – at μ-opioid receptor [3] is above 20000 nM; on κ opioid receptor [4], 6.63 ± 2.21 nM; at μ-opioid receptor [5], above 20000 nM; on κ opioid receptor [6], 1.82 ± 0.098 nM. Further, the Emax (commonly the size of the effect at its maximum, as opposed to the concentration needed) on μ-opioid receptor [3] turned out to be 1%; on κ opioid receptor [4], 59.3 ± 4.06%; at μ-opioid receptor [5] (relative to DAMGO, U-2 OS cells), 2.5%; at κ opioid receptor [6] (relative to U69,593, U-2 OS cells) it was 111 ± 3.51%.

On to `COc1ccc2c(c1)[C@]13CCN[C@H](C2)[C@]1(O)CC[C@@]1(C3)NC(=O)NC1=O` [Compound 12, (4bR,4′S,8aS,9R)-8a-hydroxy-3-methoxy-5,7,8,8a,9,10-hexahydrospiro[9,4b-(epiminoethano)phenanthrene-6,4′-imidazolidine]-2′,5′-dione], for which the results for the Ki on μ-opioid receptor [1] (setting [7]) and on κ opioid receptor [2] (setting [9]) were 14900 nM and above 20000 nM, respectively.

Consider `COc1ccc2c(c1)[C@]13CCN(Cc4ccccc4)[C@H](C2)[C@]1(O)CC[C@@]1(C3)NC(=O)NC1=O` [Compound 11, (4bR,4′S,8aS,9R)-11-benzyl-8a-hydroxy-3-methoxy-5,7,8,8a,9,10-hexahydrospiro[9,4b-(epiminoethano)phenanthrene-6,4′-imidazolidine]-2′,5′-dione], for which the Ki (in general, the dissociation constant of the complex between target and ligand, obtained from inhibition or displacement) on μ-opioid receptor [1] (bound given in μM, read-out: Opioid Receptor Ki μ) is above 20000 nM; at κ opioid receptor [2] (setting [9]) it was above 20000 nM.

With `O=C1NC(=O)[C@@]2(CC[C@H]3[C@H]4Cc5ccc(O)cc5[C@@]3(CCN4CC3CC3)C2)N1` [Compound 7, (4bS,4′S,8aR,9R)-11-(cyclopropylmethyl)-3-hydroxy-5,7,8,8a,9,10-hexahydrospiro[9,4b-(epiminoethano)phenanthrene-6,4′-imidazolidine]-2′,5′-dione], the Ki on μ-opioid receptor [1] (setting [7]) is 8.39 ± 2.72 nM; on κ opioid receptor [2] (setting [8]), 0.23 ± 0.05 nM. Also, the EC50 on μ-opioid receptor [3] is 3.76 ± 0.41 nM; at κ opioid receptor [4], 3.68 ± 0.99 nM. Moreover, the Emax on μ-opioid receptor [3] came out at 37 ± 4.04%; at κ opioid receptor [4] it was 86.3 ± 2.19%.

Consider `CN1CC[C@]23C[C@]4(CC[C@@]2(O)[C@H]1Cc1ccc(O)cc13)NC(=O)NC4=O` [Compound 10, (4bR,4′S,8aS,9R)-3,8a-dihydroxy-11-methyl-5,7,8,8a,9,10-hexahydrospiro[9,4b-(epiminoethano)phenanthrene-6,4′-imidazolidine]-2′,5′-dione], for which the values for the Ki on μ-opioid receptor [1] (setting [7]) and on κ opioid receptor [2] (setting [8]) were 27 ± 3.07 nM and 155 ± 29.5 nM, respectively.

With `COc1ccc2c(c1)[C@]13CCN(CC4CC4)[C@H](C2)[C@]1(O)CC[C@@]1(C3)NC(=O)NC1=O` [Compound 2, (4bR,4′S,8aS,9R)-11-(cyclopropylmethyl)-8a-hydroxy-3-methoxy-5,7,8,8a,9,10-hexahydrospiro[9,4b-(epiminoethano)phenanthrene-6,4′-imidazolidine]-2′,5′-dione], the values for the Ki on μ-opioid receptor [1] (setting [7]) and at κ opioid receptor [2] (setting [8]) were 9050 ± 895 nM and 130 ± 22.7 nM, respectively. In addition, the values for the EC50 at μ-opioid receptor [3] and at κ opioid receptor [4] were 1950 ± 37.7 nM and 2500 ± 556 nM, respectively. Besides, the Emax at μ-opioid receptor [3] worked out at 31.3 ± 2.4%; at κ opioid receptor [4], 63 ± 1.53%.

For the molecule `COc1ccc2c(c1)[C@]13CCN(CC4CC4)[C@H](C2)[C@@H]1CC[C@@]1(C3)NC(=O)NC1=O` [Compound 6, (4bS,4′S,8aR,9R)-11-(cyclopropylmethyl)-3-methoxy-5,7,8,8a,9,10-hexahydrospiro[9,4b-(epiminoethano)phenanthrene-6,4′-imidazolidine]-2′,5′-dione], the Ki at κ opioid receptor [2] (setting [8]) is 12.2 ± 2.61 nM. Moreover, the EC50 came to 1460 ± 121 nM on μ-opioid receptor [3] and 1230 ± 380 nM on κ opioid receptor [4]. Besides, the Emax at μ-opioid receptor [3] was determined as 58.3 ± 5.24%; at κ opioid receptor [4], 89.7 ± 3.53%.

On to `COc1ccc2c(c1)[C@]13CCN(CC4CC4)[C@H](C2)[C@]1(O)CC[C@@]1(CNC(=O)N1)C3` [Compound 4, (4bR,4′S,8aS,9R)-11-(cyclopropylmethyl)-8a-hydroxy-3-methoxy-5,7,8,8a,9,10-hexahydrospiro[9,4b-(epiminoethano)phenanthrene-6,4′-imidazolidin]-2′-one], for which, at κ opioid receptor [2] (setting [8]), the Ki came out at 135 ± 38.1 nM. Besides, the EC50 was 809 ± 143 nM at μ-opioid receptor [3] and 901 ± 389 nM at κ opioid receptor [4]. Besides, the Emax is 20.7 ± 0.67% on μ-opioid receptor [3] and 44.3 ± 1.45% at κ opioid receptor [4].
